In paper PMC4558462, “A new small molecule inhibitor of soluble guanylate cyclase” (Bioorganic & Medicinal Chemistry, 2015):
“Also recorded” adds a separate entry of the source.

Legend:
membrane-bound GCs (pGC) = target: T1, membrane-bound GCs (pGC) (Rattus norvegicus, UniProt P18910); assay: Particulate guanylate cyclase assay in purified rat lung membranes; format: biochemical
T1 sequence (P18910 29-1057): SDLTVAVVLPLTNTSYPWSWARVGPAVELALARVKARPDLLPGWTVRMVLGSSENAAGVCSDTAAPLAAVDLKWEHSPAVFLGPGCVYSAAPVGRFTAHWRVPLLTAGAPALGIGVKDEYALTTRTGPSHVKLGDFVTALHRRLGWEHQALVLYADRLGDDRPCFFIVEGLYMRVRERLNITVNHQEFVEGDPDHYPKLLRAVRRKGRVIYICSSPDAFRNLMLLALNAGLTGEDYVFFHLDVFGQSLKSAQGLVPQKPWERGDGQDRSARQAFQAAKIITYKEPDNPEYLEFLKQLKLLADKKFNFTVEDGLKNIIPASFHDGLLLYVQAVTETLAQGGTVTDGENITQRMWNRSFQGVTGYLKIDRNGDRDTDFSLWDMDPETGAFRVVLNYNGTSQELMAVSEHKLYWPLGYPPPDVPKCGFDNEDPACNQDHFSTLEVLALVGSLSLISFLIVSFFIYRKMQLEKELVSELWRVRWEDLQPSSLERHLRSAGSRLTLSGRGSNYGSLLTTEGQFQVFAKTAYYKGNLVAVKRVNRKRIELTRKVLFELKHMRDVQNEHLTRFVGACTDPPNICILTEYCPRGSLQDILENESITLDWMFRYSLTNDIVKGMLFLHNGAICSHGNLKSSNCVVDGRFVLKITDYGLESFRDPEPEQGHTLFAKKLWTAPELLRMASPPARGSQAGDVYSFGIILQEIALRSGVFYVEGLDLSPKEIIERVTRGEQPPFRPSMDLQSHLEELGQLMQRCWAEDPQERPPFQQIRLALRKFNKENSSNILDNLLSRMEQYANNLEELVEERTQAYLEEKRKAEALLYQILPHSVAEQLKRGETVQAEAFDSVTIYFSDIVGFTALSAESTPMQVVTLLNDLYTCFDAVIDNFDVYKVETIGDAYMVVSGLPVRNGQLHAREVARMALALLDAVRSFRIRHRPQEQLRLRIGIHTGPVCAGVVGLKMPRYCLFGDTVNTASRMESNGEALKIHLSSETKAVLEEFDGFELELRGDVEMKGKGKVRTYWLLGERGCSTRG
Experimental: Purified rat lung membranes (20 μg protein/200 μL) were incubated in Tris buffer with 10 mM phosphocreatine, 10 units/mL creatine phosphokinase, and 10 μM ODQ to inhibit NO-activated GC. The reaction took place with 0.3 mM MgCl, 0.5 mM MgATP, and 1 mM MgGTP, at 37 °C. The compound was added and 1 μM ANP used to activate pGC. cGMP formation was allowed to proceed for 10.5–12.5 min and was subsequently measured by radioimmunoassay.

adenylyl cyclase = assay: Adenylyl cyclase activity (data not shown); format: biochemical
Excerpt: The sGC heterodimer is composed of a α-subunit and a shorter β-subunit which presents in the N-terminal the prosthetic haem group bound to histidine-105.[27] Each subunit is composed of a haem-nitric oxide binding domain, a PAS-like domain, a coiled-coil bundle, and the C-terminal catalytic domain where turnover of GTP into cGMP occurs.[28] […] The two sites are different, and small molecules can bind to one or to both sites, thus showing a 1:1 or 1:2 binding ratio. We have previously shown by surface plasmon resonance (SPR) that ATP binds to both sites and may inhibit sGC activity via competition with GTP, highlighting the potential for allosteric regulation of the enzyme.[24] GC domains are also present in the membrane-bound natriuretic peptide receptors type-A and type-B. There receptors, also referred to as particulate GCs (pGCs), are activated by binding of natriuretic peptides to the extracellular domain of the receptors, leading to an increase in GTP turnover at the intracellular GC domain.[32–34] In this study we observed by SPR that compound 10 bound to the catalytic domain of sGC in a 1:1 ratio. […] However, activity against kinases or phosphodiesterases was not investigated.

## O=[N+]([O-])c1ccc2nc(Nc3ccc(O)cc3)c(Nc3ccc(O)cc3)nc2c1 [Compound 10, 4,4′-((6-Nitroquinoxaline-2,3-diyl)bis(azanediyl))diphenol]
membrane-bound GCs (pGC); Basal (listed under ANP group)
  Hill slope: 2
  IC50: 15 ± 2 µM
membrane-bound GCs (pGC); GC activator ANP 10 nM
  Hill slope: 2
membrane-bound GCs (pGC); GC activator ANP 10 nM, rat lung membranes, 10 μM ODQ
  IC50: 21 ± 3 µM
membrane-bound GCs (pGC); GC activator ANP 1 μM
  Hill slope: 1
membrane-bound GCs (pGC); GC activator ANP 1 μM, rat lung membranes, 10 μM ODQ
  IC50: 25 ± 13 µM
membrane-bound GCs (pGC); rat lung membranes, atrial natriuretic peptide stimulation, 10 μM ODQ
  inhibition of pGC-generated cGMP (in words): showed inhibition; also recorded: Inhibition of particulate GC was also observed
Adenylyl cyclase; basal
  activity on adenylyl cyclase: no activity
Adenylyl cyclase; forskolin-stimulated
  activity on adenylyl cyclase: no activity
